Laboratory results: paper PMC10535864, “Novel Aminopyrimidine-2,4-diones, 2-Thiopyrimidine-4-ones, and 6-Arylpteridines as Dual-Target Inhibitors of BRD4/PLK1: Design, Synthesis, Cytotoxicity, and Computational Studies” (Pharmaceuticals, 2023)

How the values were obtained:
[1] = tested on: MDA-MB-231 breast cancer cells; assay: MTT cytotoxicity assay, MDA-MB-231; type: cell-based; settings: MDA-MB-231, MTT; for IC50: mean of three independent experiments ± SD, read-out: IC50 Value MDA-MB-231
Method: (§1) All newly synthetic compounds were tested for cytotoxicity using a six-dose MTT colorimetric assay on three cancer cell lines; namely, breast cancer cells (MDA-MB-231), colorectal adenocarcinoma cells (HT-29) and renal cancer cells (U-937). […] However, renal cancer cells (U-937) were discovered to be the least sensitive.
(§2) Using a six-dose MTT colorimetric assay, all new synthetic compounds were tested for cytotoxicity against three cancer cell lines: MDA-MB-231 breast cancer cells, HT-29 colorectal adenocarcinoma cells, and U-937 renal cancer cells. […] These cell lines were supplied by ATCC (American Type Culture Collection) via the Holding company for biological products and vaccines (VACSERA, Cairo, Egypt). The reference control used was Methotrexate. Detailed descriptions of the MTT colorimetric assay’s protocol can be found in the Supplementary file.
(§3) 1.1.In-vitro cytotoxicity screening
(§4) Using a six-dose MTT colorimetric assay, allnew synthetic compounds were tested for cytotoxicity against three cancer cell lines: MDA-MB-231 breast cancer cells,HT-29 colorectal adenocarcinoma cells, and U-937 renal […]
(§5) The cell lines were supplied by ATCC (American Type Culture Collection). The reference control used was Methotrexate. The cytotoxic activities of the examined compounds were quantified by inoculating a 96-well tissue culture plate with 1 X 10^5 cells / mL (100 uL/well) and incubating it at 37°C for 24 hours to develop a complete monolayer sheet. After forming a confluent sheet of cells, the growth medium was decanted from 96-well microtiter plates, and the cell monolayer was washed twice with wash media. Two-fold dilutions of tested samples were made in RPMI medium with 2% serum (maintenance medium), and 0.1 mL of each dilution was tested in different wells, with three wells serving as controls and receiving only maintenance medium. Following that, the plate was incubated at 37°C and examined. Cells were investigated for any physical signs of toxicity, such as partial or complete monolayer loss, rounding, shrinkage, or cell granulation. MTT solution was prepared (5mg/ml in PBS) (BIO BASIC CANADA INC), and 20 uL MTT solution was added to each well. After 5 minutes on a shaking table at150 rpm to thoroughly mix the MTT into the media, it was incubated (37°C, 5% CO2) for 4 hours to allow the MTT to be metabolized. Formazan (MTT metabolic product) was resuspended in 200 uL DMSO and shaken at 150 rpm for 5 minutes to thoroughly mix the formazan into the solvent. The optical density was measured at 560 nm, and the background was subtracted at 620 nm. Finally, the IC50 of the test compound in comparison to the reference was calculated using the GraphPad Prism software. […]

[2] = tested on: HT-29 colorectal adenocarcinoma cells; assay: MTT cytotoxicity assay, HT-29; type: cell-based; settings: MTT; for IC50: mean of three independent experiments ± SD, read-out: IC50 Value HT-29
Method: as §1, §2, §3, §4, §5

[3] = MTT cytotoxicity assay, U-937; type: cell-based; settings: Homo sapiens, U-937, U937, MTT;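 also: Six-dose MTT colorimetric assay on cell monolayers, formazan absorbance read at 560 nm with 620 nm background removed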
U-937 renal cancer cells = assay: MTT cytotoxicity assay, U-937; type: cell-based; settings: MTT; for IC50: Homo sapiens, U-937, mean of three independent experiments ± SD, read-out: IC50 Value U-937; for Toxicity %: U937;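 as to all read-outs here: Six-dose MTT colorimetric assay on cell monolayers, formazan absorbance read at 560 nm with 620 nm background removed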
[4] = MTT cytotoxicity assay, normal Vero cells; type: cell-based; settings: African green monkey, normal Vero cells, MTT;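 also: monolayers exposed to two-fold dilutions in 2% serum medium, MTT added for 4 h, formazan in DMSO read at 560 nm minus 620 nm, controls given medium alone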
Method: (§6) Using a six-dose MTT colorimetric assay [44, 66], all new synthetic compounds were tested for cytotoxicity against three cancer cell lines: MDA-MB-231 breast cancer cells, HT-29 colorectal adenocarcinoma cells, and U-937 renal cancer cells. […] These cell lines were supplied by ATCC (American Type Culture Collection) via the Holding company for biological products and vaccines (VACSERA, Cairo, Egypt). The reference control used was Methotrexate.
(§7) Using a six-dose MTT colorimetric assay [44, 66], allnew synthetic compounds were tested for cytotoxicity against three cancer cell lines: MDA-MB-231 breast cancer cells,HT-29 colorectal adenocarcinoma cells, and U-937 renal
(§8) The cell lines were supplied by ATCC (American Type Culture Collection). The reference control used was Methotrexate. The cytotoxic activities of the examined compounds were quantified by inoculating a 96-well tissue culture plate with 1 X 10^5 cells / mL (100 uL/well) and incubating it at 37°C for 24 hours to develop a complete monolayer sheet. After forming a confluent sheet of cells, the growth medium was decanted from 96-well microtiter plates, and the cell monolayer was washed twice with wash media. Two-fold dilutions of tested samples were made in RPMI medium with 2% serum (maintenance medium), and 0.1 mL of each dilution was tested in different wells, with three wells serving as controls and receiving only maintenance medium. Following that, the plate was incubated at 37°C and examined. Cells were investigated for any physical signs of toxicity, such as partial or complete monolayer loss, rounding, shrinkage, or cell granulation. MTT solution was prepared (5mg/ml in PBS) (BIO BASIC CANADA INC), and 20 uL MTT solution was added to each well. After 5 minutes on a shaking table at150 rpm to thoroughly mix the MTT into the media, it was incubated (37C, 5% CO2) for 4 hours to allow the MTT to be metabolized. Formazan (MTT metabolic product) was resuspended in 200 uL DMSO and shaken at 150 rpm for 5 minutes to thoroughly mix the formazan into the solvent. The optical density was measured at 560 nm, and the background was subtracted at 620 nm. Finally, the IC50 of the test compound in comparison to the reference was calculated using the GraphPad Prism software.

normal Vero cells = assay: MTT cytotoxicity assay, normal Vero cells; type: cell-based; settings: Vero, MTT;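 also: monolayers exposed to two-fold dilutions in 2% serum medium, MTT added for 4 h, formazan in DMSO read at 560 nm minus 620 nm, controls given medium alone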
Method: as §6, §7, §8

[5] = Homo sapiens, HT-29, HT29, 0.312 uM
[6] = Homo sapiens, HT-29, HT29, 0.625 uM
[7] = Homo sapiens, HT-29, HT29, 1.25 uM
[8] = Homo sapiens, HT-29, HT29, 2.5 uM
[9] = Homo sapiens, HT-29, HT29, 5 uM
[10] = Homo sapiens, HT-29, HT29, 10 uM

In the case of `Cn1c(=S)[nH]c(=O)c2nc(-c3ccccc3)c(-c3ccccc3)nc21` [Compound 10, 1-Methyl-6,7-diphenyl-2-thioxo-2,3-dihydropteridin-4(1H)-one], the IC50 ([1]; Homo sapiens) is reported as 3.4 ± 0.02 µM, the viability at 0.312 µM ([1]; Homo sapiens, 0.312 uM) is reported as 100% and the viability at 0.625 µM ([1]; Homo sapiens, 0.625 uM) is reported as 100%. For the same compound, the viability at 1.25 µM ([1]; Homo sapiens, 1.25 uM) was 98.8%, the viability at 2.5 µM ([1]; Homo sapiens, 2.5 uM) was 54.3% and the viability at 5 µM ([1]; Homo sapiens, 5 uM) was 26.3%. The viability at 10 µM ([1]; Homo sapiens, 10 uM) was 7.93%, the Toxicity % ([1]; 0.312 uM) was 0% and the Toxicity % ([1]; 0.625 uM) was 0%. The Toxicity % ([1]; 1.25 uM) was 1.197%, the Toxicity % ([1]; 2.5 uM) was 45.66% and the Toxicity % ([1]; 5 uM) was 73.67%. It also gave a Toxicity % ([1]; 10 uM) of 92.07%, a Toxicity % ([2]; HT29, 0.312 uM) of 0% and a Toxicity % ([2]; HT29, 0.625 uM) of 0%. The Toxicity % ([2]; HT29, 1.25 uM) was 2.239%, the Toxicity % ([2]; HT29, 2.5 uM) was 18.99% and the Toxicity % ([2]; HT29, 5 uM) was 41.09%. For the same compound, the Toxicity % ([2]; HT29, 10 uM) was 96.3%, the viability at 0.312 µM [2, 5] was 100% and the viability at 0.625 µM [2, 6] was 100%. For the same compound, the viability at 1.25 µM [2, 7] was 97.8%, the viability at 2.5 µM [2, 8] was 81% and the viability at 5 µM [2, 9] was 58.9%. For the same compound, the viability at 10 µM [2, 10] was 3.7%, the IC50 ([2]; Homo sapiens, HT-29) was 5.63 ± 0.13 µM and the viability at 0.312 µM [3] was 99.5%. For the same compound, the viability at 0.625 µM [3] was 99.8%, the viability at 1.25 µM [3] was 99.9% and the viability at 2.5 µM [3] was 95.8%. For the same compound, the viability at 5 µM [3] was 85%, the viability at 10 µM [3] was 34.9% and the IC50 (U-937 renal cancer cells) was 8.37 ± 0.23 µM. The Toxicity % (U-937 renal cancer cells; 0.312 uM) was 0.5447%, the Toxicity % (U-937 renal cancer cells; 0.625 uM) was 0.1634% and the Toxicity % (U-937 renal cancer cells; 1.25 uM) was 0.05447%. It also gave a Toxicity % (U-937 renal cancer cells; 2.5 uM) of 4.248%, a Toxicity % (U-937 renal cancer cells; 5 uM) of 15.03% and a Toxicity % (U-937 renal cancer cells; 10 uM) of 65.14%. It also gave a melting point of 287 °C.
Compound `CN(Cc1cnc2nc(N)nc(N)c2n1)c1ccc(C(=O)N[C@@H](CCC(=O)O)C(=O)O)cc1` [Methotrexate, reference compound] has an IC50 ([1]; Homo sapiens) of 2.79 ± 0.06 µM, a viability at 0.078 µM ([1]; Homo sapiens, 0.078 uM) of 99.9% and a viability at 0.156 µM ([1]; Homo sapiens, 0.156 uM) of 99.7%. For the same compound, the viability at 0.312 µM ([1]; Homo sapiens, 0.312 uM) was 99.6%, the viability at 0.625 µM ([1]; Homo sapiens, 0.625 uM) was 99.8% and the viability at 1.25 µM ([1]; Homo sapiens, 1.25 uM) was 81.5%. For the same compound, the viability at 2.5 µM ([1]; Homo sapiens, 2.5 uM) was 42.4%, the viability at 5 µM ([1]; Homo sapiens, 5 uM) was 19.5% and the viability at 10 µM ([1]; Homo sapiens, 10 uM) was 11.8%. It also gave a Toxicity % ([1]; 0.078 uM) of 0.0883%, a Toxicity % ([1]; 0.156 uM) of 0.2649% and a Toxicity % ([1]; 0.312 uM) of 0.3532%. It also gave a Toxicity % ([1]; 0.625 uM) of 0.2208%, a Toxicity % ([1]; 1.25 uM) of 18.45% and a Toxicity % ([1]; 2.5 uM) of 57.62%. The Toxicity % ([1]; 5 uM) was 80.53%, the Toxicity % ([1]; 10 uM) was 88.17% and the Toxicity % ([2]; HT29, 0.078 uM) was 0.5016%. For the same compound, the Toxicity % ([2]; HT29, 0.156 uM) was 0.912%, the Toxicity % ([2]; HT29, 0.312 uM) was 0.228% and the Toxicity % ([2]; HT29, 0.625 uM) was 26.95%. The Toxicity % ([2]; HT29, 1.25 uM) was 66.94%, the Toxicity % ([2]; HT29, 2.5 uM) was 89.83% and the Toxicity % ([2]; HT29, 5 uM) was 97.45%. It also gave a Toxicity % ([2]; HT29, 10 uM) of 97.58%, a viability at 0.078 µM ([2]; Homo sapiens, HT-29, HT29, 0.078 uM) of 99.5% and a viability at 0.156 µM ([2]; Homo sapiens, HT-29, HT29, 0.156 uM) of 99.1%. For the same compound, the viability at 0.312 µM [2, 5] was 99.8%, the viability at 0.625 µM [2, 6] was 73.1% and the viability at 1.25 µM [2, 7] was 33.1%. It also gave a viability at 2.5 µM [2, 8] of 10.2%, a viability at 5 µM [2, 9] of 2.55% and a viability at 10 µM [2, 10] of 2.42%. The IC50 ([2]; Homo sapiens, HT-29) was 0.99 ± 0.02 µM, the viability at 0.078 µM ([3]; 0.078 uM) was 99.9% and the viability at 0.156 µM ([3]; 0.156 uM) was 99.9%. It also gave a viability at 0.312 µM [3] of 98.9%, a viability at 0.625 µM [3] of 96.9% and a viability at 1.25 µM [3] of 47.5%. The viability at 2.5 µM [3] was 31.5%, the viability at 5 µM [3] was 8.38% and the viability at 10 µM [3] was 7.63%. It also gave an IC50 (U-937 renal cancer cells) of 1.22 ± 0.02 µM, a Toxicity % (U-937 renal cancer cells; 0.078 uM) of 0.1004% and a Toxicity % (U-937 renal cancer cells; 0.156 uM) of 0.0502%. The Toxicity % (U-937 renal cancer cells; 0.312 uM) was 1.104%, the Toxicity % (U-937 renal cancer cells; 0.625 uM) was 3.112% and the Toxicity % (U-937 renal cancer cells; 1.25 uM) was 52.46%. For the same compound, the Toxicity % (U-937 renal cancer cells; 2.5 uM) was 68.47%, the Toxicity % (U-937 renal cancer cells; 5 uM) was 91.62% and the Toxicity % (U-937 renal cancer cells; 10 uM) was 92.37%. For the same compound, the IC50 ([4]; mean of three independent experiments ± SD, read-out: In Vitro Cytotoxicity against Normal Cells IC50 Value, Vero Cells) was 10.2 ± 0.3 µM, the viability at 0.312 µM ([4]; Vero, 0.312 uM) was 99.7% and the viability at 0.625 µM ([4]; Vero, 0.625 uM) was 100%. The viability at 1.25 µM ([4]; Vero, 1.25 uM) was 99.3%, the viability at 2.5 µM ([4]; Vero, 2.5 uM) was 97.3% and the viability at 5 µM ([4]; Vero, 5 uM) was 87.6%. For the same compound, the viability at 10 µM ([4]; Vero, 10 uM) was 50.2%, the Toxicity % (normal Vero cells; 0.312 uM) was 0.3046% and the Toxicity % (normal Vero cells; 0.625 uM) was 0.04352%. The Toxicity % (normal Vero cells; 1.25 uM) was 0.7398%, the Toxicity % (normal Vero cells; 2.5 uM) was 2.698% and the Toxicity % (normal Vero cells; 5 uM) was 12.45%. It also gave a Toxicity % (normal Vero cells; 10 uM) of 49.78%.
